The numbers were not newly measured in patent US20090311335A1, “COMBINATION OF A TRIPTAN AND AN NSAID” (priority 2008, published 2009), which cites them from elsewhere.

For series [1] the following is noted: single intravenous dose, range 5 to 60 mg.
The conditions of series [2]: oral 75 mg or 150 mg, dual-release formulation.

As for `Cc1cnc(NC(=O)C2=C(O)c3ccccc3S(=O)(=O)N2C)s1` [Meloxicam, 4-hydroxy-2-methyl-N-(5-methyl-2-thiazolyl-)-2-H-1,2-benzothiazine-3-carboxamide 1,1-dioxide], under “methanol”, the solubility in methanol entry is “very slightly soluble”. For the same compound, the “solubility in strong acids and bases” value (strong acids and bases) is on record as “higher solubility”. In addition, the solubility in water result (water) is recorded as “practically insoluble”. Further, in series [1], the “dose proportionality of pharmacokinetics” value was “dose-proportional”.
`CC(C(=O)O)c1cccc(C(=O)c2ccccc2)c1` (centres unmarked) [ketoprofen]: in series [2], the “efficacy and tolerability in acute treatment of migraine attacks” value is “effective and well-tolerated”.
